Test results from patent US6544727B1, “Methods and devices for the removal of psoralens from blood products” (Cerus Corporation, priority 1995, dated 2003).

Key:
Pseudomonas = assay: Bacterial inactivation, colony forming units; type: cell-based; settings: 16 μM; 5 J/cm^2 irradiation; starting titer 6.5 logs
Experimental: The bacteria, a strain of Pseudomonas, was inoculated into LB with a sterile loop and grown overnight in a shaker at 37° C. Based on the approximation that one OD at 610 mn is equivalent to 5×10^8 colony forming units (cfu)/mL, a 1:10 dilution of the culture was measured on a spectrophotometer, (manufactured by Shimatsu). The bacterial culture was added to a solution of 15% fetal bovine serum in DMEM to a final bacteria concentration of approximately 10^6/mL. An aliquot (0.8 mL) was transferred to a 1.5 mL snap-top polyethylene tube. An aliquot (0.004-0.040 mL) of the test compound stock solution prepared in water, ethanol or dimethylsulfoxide at 0.80-8.0 mM was added to the tube. Compounds were tested at a concentration of 16 μM. The tubes were placed in a light device as described in EXAMPLE 1 and irradiated with 1.3 J/cm^2, 1.2 J/cm^2, and finally 2.5 J/cm^2, for a total of 5 J/cm^2. 150 μL were removed for testing after each pulse period. Sterile 13 mL dilution tubes were prepared; each test compound required one tube with 0.4 mL of LB broth and four tubes containing 0.5 mL of LB broth. […] The colony forming units were then counted the following morning and the titer of the phage remaining after phototreatment was calculated based on the dilution factors. […]

platelets = assay: Platelet aggregation (ADP and collagen), aggregometer; type: cell-based, human; settings: 100 μM compound, 5 Joules/cm^2, 5 days storage; FIG. 21B
Experimental: To measure the effects of the present compounds and methods of decontamination on platelet function using these four indicators, four samples were prepared for each compound tested, two control samples and two containing compound. Three units of human platelets were obtained from the Sacramento Blood Center, Sacramento, Calif. These were each transferred under sterile conditions to 50 ml centrifuge tubes, then aliquots of each unit were transferred into a second set of 50 ml sterile centrifuge tubes. To each centrifuge tube containing platelet concentrate (PC), an aliquot of compound stock was added to reach a final concentration of 100 μM of compound. […] The samples were pipetted gently up and down to mix. Then aliquots (either 3 ml or 8 ml) of each sample was transferred to two sterile Teflon™ Medi-bags™ (American Fluoroseal Co., Silver Springs, Md.) (presently owned by The West Company, Lionville, Pa.). Samples were treated in one of two different sized bags, having either 3 ml or 8 ml capacity. […] For each compound tested, two control samples without compound were prepared by again removing aliquots of platelet concentrate (17 ml if using an 8 ml bag, 4 ml if using a 3 ml bag) from the same one of the first set of 50 ml centrifuge tubes from which the compound sample was drawn, and dividing into Medibags, as before. […]

[1] = Batch adsorption of 3H-S-59 and photoproducts from illuminated PC, residual radioactivity (Table F); type: physicochemical
Experimental: The removal of residual S-59 and S-59 photoproducts from illuminated PC by batch adsorption was investigated. […] Two separate platelet units were treated for each adsorbent; one unit was agitated for 3 hours before the platelets were separated from the adsorbent and transferred to another bag, and the other platelet unit was left in contact with the adsorbent for 4 days. Samples were removed from the units before treatment, after 3 hours of contact with the adsorbent, and on day 4.

SMILES	log kill of Pseudomonas (Pseudomonas) [logs]	reduction in platelet aggregation from the day 1 control (platelets)	counts as 3H exchanged water ([1]; 3H-S-59, illuminated PC)	counts associated with plasma macromolecules ([1]; 3H-S-59, illuminated PC)	counts associated with platelet macromolecules ([1]; 3H-S-59, illuminated PC)	non-adsorbed radioactivity ([1]; 3H-S-59, illuminated PC treated with adsorbent for 4 days)
Cc1oc2c(C)c3oc(=O)cc(C)c3cc2c1CN [AMT, 4′-Aminomethyl-4,5′,8-trimethylpsoralen, reference compound]	5.2					
Cc1oc2c(C)c3oc(=O)cc(C)c3cc2c1COCCN [Compound 2, 4′-(4-amino-2-oxa)butyl-4,5′,8-trimethylpsoralen]		approximately 8%	about 10%	about 18%	about 15%	36-37%
